Test results published in PubChem BioAssay AID330 (DTP/NCI, 2004).
Values joined by “and” are separate entries in the source; they are usually repeats but may differ in a detail not shown here. Equal values may be shown once. Inconclusive results and toxic doses are left out. Rule for the calls: active = survival T/C of 150% or more; inactive = T/C below 125% in these data.

Tested on: P388 leukemia ip, CD2F1 mice, survival T/C
Assay: NCI In Vivo Anticancer Drug Screen. Data for tumor model P388 Leukemia (intraperitoneal) in CD2F1 (CDF1) mice
Details: endpoint: median survival time, higher = longer survival
Method in brief: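 Mice carrying the transplanted tumor received test compound or vehicle. Survival was recorded in each group, and the value is the treated-group measurement divided by that of the vehicle-treated control group.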

[1] = dose: 50.0 mg/kg/injection, schedule: Q01DX009 (ip), vehicle: Klucel (hydroxypropylcellulose) (HPC)
[2] = dose: 50.0 mg/kg/injection, schedule: Q01DX009 (ip), vehicle: saline with Tween-80
[3] = dose: 100.0 mg/kg/injection, schedule: Q01DX009 (ip), vehicle: Klucel (hydroxypropylcellulose) (HPC)
[4] = dose: 100.0 mg/kg/injection, schedule: Q01DX009 (ip), vehicle: saline with Tween-80
[5] = dose: 200.0 mg/kg/injection, schedule: Q01DX009 (ip), vehicle: Klucel (hydroxypropylcellulose) (HPC)
[6] = dose: 200.0 mg/kg/injection, schedule: Q01DX009 (ip), vehicle: saline with Tween-80
[7] = dose: 60.0 mg/kg/injection, schedule: Q01DX005 (ip), vehicle: saline with Tween-80
[8] = dose: 50.0 mg/kg/injection, schedule: Q01DX005 (ip), vehicle: saline with Tween-80
[9] = dose: 100.0 mg/kg/injection, schedule: Q01DX005 (ip), vehicle: saline with Tween-80

Measured: T/C

CCN=C(Nc1cccc(C2=NCCN2)c1)c1ccc(C(=NCC)Nc2cccc(C3=NCCN3)c2)cc1
inactive: dose: 1.56 mg/kg/injection, schedule: Q01DX005 (ip), vehicle: Klucel (hydroxypropylcellulose) (HPC) 100 % of control | dose: 3.12 mg/kg/injection, schedule: Q01DX005 (ip), vehicle: Klucel (hydroxypropylcellulose) (HPC) 99 % of control | dose: 6.25 mg/kg/injection, schedule: Q01DX005 (ip), vehicle: Klucel (hydroxypropylcellulose) (HPC) 109 % of control | dose: 12.5 mg/kg/injection, schedule: Q01DX005 (ip), vehicle: Klucel (hydroxypropylcellulose) (HPC) 109 % of control

c1ccc(NSc2ccccc2)cc1
inactive: dose: 25.0 mg/kg/injection, schedule: Q01DX009 (ip), vehicle: Klucel (hydroxypropylcellulose) (HPC) 119 % of control | dose: 25.0 mg/kg/injection, schedule: Q01DX009 (ip), vehicle: saline with Tween-80 100 % of control | [1] 103 % of control and 119 % of control | [2] 98 % of control | [3] 101 % of control and 121 % of control | [4] 109 % of control | [5] 106 % of control | [6] 100 % of control

C=CCN1c2c(nc(N)[nH]c2=O)NCC1CNc1ccc(C(=O)NC(CCC(=O)O)C(=O)O)cc1 (stereo unspecified)
inactive: dose: 50.0 mg/kg/injection, schedule: Q04DX003 (ip), vehicle: alkali diluted with saline 113 % of control | dose: 100.0 mg/kg/injection, schedule: Q04DX003 (ip), vehicle: alkali diluted with saline 95 % of control | dose: 200.0 mg/kg/injection, schedule: Q04DX003 (ip), vehicle: alkali diluted with saline 111 % of control

CCn1c2ccccc2c2cc(N=Cc3cccc([N+](=O)[O-])c3)ccc21
inactive: [2] 97 % of control | [4] 98 % of control | [6] 88 % of control

S=S1CC2(CSSC2)C1.[Cl][Hg][Cl]
inactive: dose: 7.5 mg/kg/injection, schedule: Q01DX009 (ip), vehicle: saline 111 % of control | dose: 15.0 mg/kg/injection, schedule: Q01DX009 (ip), vehicle: saline 117 % of control

CC1CN1c1nc(N2CC2C)nc(N2CC2C)n1 (stereo unspecified)
inactive: dose: 1.56 mg/kg/injection, schedule: Q01DX009 (ip), vehicle: saline with Tween-80 94 % of control | dose: 3.13 mg/kg/injection, schedule: Q01DX009 (ip), vehicle: saline with Tween-80 98 % of control

CN(C)c1ccc(/C=N/NC(=O)COc2ccccc2)cc1
inactive: dose: 15.0 mg/kg/injection, schedule: Q01DX005 (ip), vehicle: saline with Tween-80 98 % of control | dose: 30.0 mg/kg/injection, schedule: Q01DX005 (ip), vehicle: saline with Tween-80 88 % of control | [7] 88 % of control

O=C(N=C(N=C(c1ccccc1)N1CCOCC1)c1ccccc1)c1ccccc1
inactive: [2] 106 % of control | [4] 102 % of control | [6] 103 % of control

O=c1[nH]c(=O)c2nc(-c3ccc4c(c3)OCO4)cnc2[nH]1
inactive: dose: 100.0 mg/kg/injection, schedule: Q04DX003 (ip), vehicle: lactic acid 93 % of control | dose: 200.0 mg/kg/injection, schedule: Q04DX003 (ip), vehicle: lactic acid 87 % of control

CC1=C(C)C(=O)OC(C(C)(O)C2(O)CCC3(O)C4CC(Cl)C5(O)C(O)C=CC(=O)C5(C)C4CCC32C)C1 (stereo unspecified)
inactive: dose: 10.0 mg/kg/injection, schedule: Q01DX005 (ip), vehicle: saline + alcohol 106 % of control | dose: 20.0 mg/kg/injection, schedule: Q01DX005 (ip), vehicle: saline + alcohol 108 % of control | dose: 25.0 mg/kg/injection, schedule: Q01DX005 (ip), vehicle: saline + alcohol 104 % of control | dose: 40.0 mg/kg/injection, schedule: Q01DX005 (ip), vehicle: saline + alcohol 112 % of control | dose: 50.0 mg/kg/injection, schedule: Q01DX005 (ip), vehicle: saline + alcohol 100 % of control and 104 % of control | dose: 80.0 mg/kg/injection, schedule: Q01DX005 (ip), vehicle: saline + alcohol 117 % of control | dose: 100.0 mg/kg/injection, schedule: Q01DX005 (ip), vehicle: saline + alcohol 104 % of control (2×) and 120 % of control | dose: 200.0 mg/kg/injection, schedule: Q01DX005 (ip), vehicle: saline + alcohol 99 % of control and 109 % of control and 111 % of control

OCN(CO)c1nc(CCC(Cl)(Cl)Cl)nc(N(CO)CO)n1
inactive: dose: 12.5 mg/kg/injection, schedule: Q01DX009 (ip), vehicle: distilled water + Tween-80 96 % of control | dose: 25.0 mg/kg/injection, schedule: Q01DX009 (ip), vehicle: distilled water + Tween-80 99 % of control | dose: 50.0 mg/kg/injection, schedule: Q01DX009 (ip), vehicle: distilled water + Tween-80 114 % of control | dose: 100.0 mg/kg/injection, schedule: Q01DX009 (ip), vehicle: distilled water + Tween-80 116 % of control | dose: 200.0 mg/kg/injection, schedule: Q01DX009 (ip), vehicle: distilled water + Tween-80 89 % of control

COc1cc2c(cc1Br)C(=O)C(Br)(Br)CCC2Br (stereo unspecified)
inactive: [1] 118 % of control | [3] 118 % of control | [5] 114 % of control

CCCCCCCCCCCCN1C(C)=CS/C1=C\C=C\c1scc(C)[n+]1CCCCCCCCCCCC
inactive: dose: 0.75 mg/kg/injection, schedule: Q01DX005 (ip), vehicle: saline with Tween-80 110 % of control | dose: 3.0 mg/kg/injection, schedule: Q01DX005 (ip), vehicle: saline with Tween-80 119 % of control
active: dose: 3.12 mg/kg/injection, schedule: Q04DX002 (ip), vehicle: saline with Tween-80 150 % of control | dose: 6.25 mg/kg/injection, schedule: Q04DX002 (ip), vehicle: saline with Tween-80 150 % of control and 157 % of control | dose: 12.5 mg/kg/injection, schedule: Q04DX002 (ip), vehicle: saline with Tween-80 160 % of control and 163 % of control

C=C(C)C(C)CC(NC(C)=O)C(=O)OC (stereo unspecified)
inactive: dose: 62.5 mg/kg/injection, schedule: Q04DX002 (ip), vehicle: Klucel (hydroxypropylcellulose) (HPC) 96 % of control | dose: 125.0 mg/kg/injection, schedule: Q04DX002 (ip), vehicle: Klucel (hydroxypropylcellulose) (HPC) 99 % of control | dose: 250.0 mg/kg/injection, schedule: Q04DX002 (ip), vehicle: Klucel (hydroxypropylcellulose) (HPC) 93 % of control

CN(/C(=N/C(=S)NCc1ccccc1)SCc1ccccc1)c1ccccc1
inactive: [8] 94 % of control | [9] 86 % of control

O=C1CCC(=O)N1CCCN1CCOCC1
inactive: dose: 60.0 mg/kg/injection, schedule: Q01DX005 (ip), vehicle: saline 89 % of control | dose: 120.0 mg/kg/injection, schedule: Q01DX005 (ip), vehicle: saline 88 % of control | dose: 240.0 mg/kg/injection, schedule: Q01DX005 (ip), vehicle: saline 99 % of control

Cc1cc2cc3n(c2nn1)N=C(Cl)CC3
inactive: [7] 86 % of control | dose: 120.0 mg/kg/injection, schedule: Q01DX005 (ip), vehicle: saline with Tween-80 101 % of control

O=S(=O)(c1cccc(C(F)(F)F)c1)N(CCCCCN(S(=O)(=O)c1cccc(C(F)(F)F)c1)S(=O)(=O)c1cccc(C(F)(F)F)c1)S(=O)(=O)c1cccc(C(F)(F)F)c1
inactive: dose: 60.0 mg/kg/injection, schedule: Q01DX005 (ip), vehicle: Klucel (hydroxypropylcellulose) (HPC) 101 % of control | dose: 120.0 mg/kg/injection, schedule: Q01DX005 (ip), vehicle: Klucel (hydroxypropylcellulose) (HPC) 92 % of control | dose: 240.0 mg/kg/injection, schedule: Q01DX005 (ip), vehicle: Klucel (hydroxypropylcellulose) (HPC) 88 % of control

Cc1ncc(CO)n1C
inactive: [2] 104 % of control | [4] 101 % of control | [6] 101 % of control | dose: 400.0 mg/kg/injection, schedule: Q01DX009 (ip), vehicle: saline with Tween-80 113 % of control

O=C1CC2COc3ccc(O)cc3C2=NN1c1ccccc1 (stereo unspecified)
inactive: [8] 94 % of control | [9] 98 % of control | dose: 200.0 mg/kg/injection, schedule: Q01DX005 (ip), vehicle: saline with Tween-80 94 % of control

NC1(P(=O)(O)O)CCCCC1
inactive: [2] 116 % of control | [4] 111 % of control | [6] 111 % of control

O=C1CC(=P(c2ccccc2)(c2ccccc2)c2ccccc2)C(=O)O1
inactive: dose: 50.0 mg/kg/injection, schedule: Q04DX003 (ip), vehicle: saline 102 % of control | dose: 100.0 mg/kg/injection, schedule: Q04DX003 (ip), vehicle: saline 100 % of control | dose: 200.0 mg/kg/injection, schedule: Q04DX003 (ip), vehicle: saline 109 % of control | dose: 400.0 mg/kg/injection, schedule: Q04DX003 (ip), vehicle: saline 106 % of control

CCOC(=O)CSCC(N)=O
inactive: dose: 50.0 mg/kg/injection, schedule: Q01DX009 (ip), vehicle: saline 100 % of control | dose: 100.0 mg/kg/injection, schedule: Q01DX009 (ip), vehicle: saline 100 % of control | dose: 200.0 mg/kg/injection, schedule: Q01DX009 (ip), vehicle: saline 98 % of control
